Counter-ions that a name gives are not always drawn.
Tests used:
[1] = biological target: T1, human alpha2A receptors (Homo sapiens, UniProt P08913); assay: cell-based
T1 sequence (P08913 1-465): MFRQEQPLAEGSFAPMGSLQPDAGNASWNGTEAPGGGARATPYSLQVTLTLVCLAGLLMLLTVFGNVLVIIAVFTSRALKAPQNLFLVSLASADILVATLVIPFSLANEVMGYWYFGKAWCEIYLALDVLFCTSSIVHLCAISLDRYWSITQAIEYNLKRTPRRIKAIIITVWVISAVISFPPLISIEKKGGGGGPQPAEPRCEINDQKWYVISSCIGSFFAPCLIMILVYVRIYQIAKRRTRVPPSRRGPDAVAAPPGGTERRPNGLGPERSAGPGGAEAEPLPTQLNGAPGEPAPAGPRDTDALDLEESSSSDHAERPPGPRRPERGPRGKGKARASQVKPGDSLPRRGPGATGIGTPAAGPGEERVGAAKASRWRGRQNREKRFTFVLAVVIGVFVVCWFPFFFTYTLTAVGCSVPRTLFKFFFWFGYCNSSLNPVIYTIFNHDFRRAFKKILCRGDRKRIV
Description: Experiment 1: Determination of alpha2A and alpha2C Antagonistic Activity In Vitro
The growth medium was removed and the cells were incubated with the test compounds and the FLIPR Calcium 6 Assay reagent (Molecular Devices, CA, USA) for 2 h at 37° C. in dark. The test compounds (concentrations in cells 100 pM-10 μM) were dissolved in Probenecid-Ringer consisting of 150 mM NaCl, 3 mM KCl, 1.2 mM MgCl2, 1 mM CaCl2, 5 mM glucose, 20 mM HEPES and 2.5 mM probenecid (pH 7.4 adjusted with 1.0 M NaOH). […] All experiments were performed at 37° C. For agonism measurements the test compounds dissolved in Probenecid-Ringer were applied by FLIPR Tetra at 15 s time point. In order to determine antagonism, the cells were stimulated either with 100 nM adrenaline or noradrenaline and the test compounds were added to the cells 2 h before the experiment with the FLIPR Calcium 6 Assay reagent. […] Typically, there were four replicates at each concentration and six different dose levels. […] The minimum fluorescence value subtracted from the maximum value for each well was used in the calculations. ScreenWorks version 4.0 software was used for analyzing the results. Fitting of the antagonist dose-response results was performed with the free Hill equation and the IC50 values were fitted with IDBS XE software using model 200: y=(A+(B/(1+((x/C)̂D)))), where A is the curve maximum, B the curve minimum and C equals the EC50 value. D is slope factor (Hill). Kb was calculated with the Cheng-Prusoff equation Kb=A/((B/C)+1), where A is the IC50 of antagonist, B the concentration of agonist and C the EC50 of the agonist.

[2] = biological target: T2, human alpha2C receptors (Homo sapiens, UniProt P18825); assay: Determination of alpha2C antagonistic activity in vitro (FLIPR calcium assay); conditions: for Kb: Alpha 2C Adrenaline Kb, Kb calculated from IC50 with the Cheng-Prusoff equation, adrenaline as agonist, CHO cells, human alpha2C
T2 sequence (P18825 1-462): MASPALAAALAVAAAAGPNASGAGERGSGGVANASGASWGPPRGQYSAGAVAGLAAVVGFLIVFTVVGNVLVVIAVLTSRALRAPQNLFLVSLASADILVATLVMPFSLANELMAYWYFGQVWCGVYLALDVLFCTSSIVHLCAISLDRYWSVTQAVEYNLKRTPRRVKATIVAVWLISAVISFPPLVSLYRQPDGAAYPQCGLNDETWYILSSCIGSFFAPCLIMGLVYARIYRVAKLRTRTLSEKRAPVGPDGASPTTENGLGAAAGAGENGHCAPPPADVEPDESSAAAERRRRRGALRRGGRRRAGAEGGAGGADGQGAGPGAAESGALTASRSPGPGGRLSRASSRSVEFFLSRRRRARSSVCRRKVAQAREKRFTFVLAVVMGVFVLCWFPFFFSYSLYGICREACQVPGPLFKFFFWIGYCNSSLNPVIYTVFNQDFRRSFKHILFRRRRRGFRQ

Cn1ncc2c1CN([C@H]1CCCN(C[C@H]3COc4ccccc4O3)C1)C2=O [example 80, 5-((S)-1-(((S)-2,3-Dihydrobenzo[b][1,4]dioxin-2-yl)methyl)piperidin-3-yl)-1-methyl-5,6-dihydropyrrolo[3,4-c]pyrazol-4(1H)-one]
IC50 [1]: > 10000 nM | Kb [1]: > 449 nM | IC50 [2]: > 10000 nM | Kb [2]: > 1010 nM

O=S1(=O)c2ccccc2CN1[C@H]1CCCN(C[C@H]2COc3ccccc3O2)C1 [example 81, 2-((S)-1-(((S)-2,3-Dihydrobenzo[b][1,4]dioxin-2-yl)methyl)piperidin-3-yl)-2,3-dihydrobenzo[d]isothiazole 1,1-dioxide]
IC50 [1]: > 10000 nM | Kb [1]: > 449 nM | IC50 [2]: 653 nM | Kb [2]: 65.7 nM

Fc1ccc2ncn([C@H]3CCCN(C[C@H]4COc5ccccc5O4)C3)c2c1 [example 82, 1-((S)-1-(((S)-2,3-Dihydrobenzo[b][1,4]dioxin-2-yl)methyl)piperidin-3-yl)-6-fluoro-1H-benzo[d]imidazole]
IC50 [1]: > 10000 nM | Kb [1]: > 449 nM | IC50 [2]: < 0.1 nM | Kb [2]: < 0.01 nM

Cc1nc2ccc(F)cc2n1[C@H]1CCCN(C[C@H]2COc3ccccc3O2)C1 [example 83, 1-((S)-1-(((S)-2,3-Dihydrobenzo[b][1,4]dioxin-2-yl)methyl)piperidin-3-yl)-6-fluoro-2-methyl-1H-benzo[d]imidazole]
IC50 [1]: > 10000 nM | Kb [1]: > 449 nM | IC50 [2]: < 0.1 nM | Kb [2]: < 0.01 nM

CCc1nc2ccc(F)cc2n1[C@H]1CCCN(C[C@H]2COc3ccccc3O2)C1 [example 84, 1-((S)-1-(((S)-2,3-Dihydrobenzo[b][1,4]dioxin-2-yl)methyl)piperidin-3-yl)-2-ethyl-6-fluoro-1H-benzo[d]imidazole]
IC50 [1]: 4330 nM | Kb [1]: 195 nM | IC50 [2]: < 0.1 nM | Kb [2]: < 0.01 nM

CC(C)c1nc2ccc(F)cc2n1[C@H]1CCCN(C[C@H]2COc3ccccc3O2)C1 [example 85, 1-((S)-1-(((S)-2,3-Dihydrobenzo[b][1,4]dioxin-2-yl)methyl)piperidin-3-yl)-6-fluoro-2-isopropyl-1H-benzo[d]imidazole]
IC50 [1]: > 10000 nM | Kb [1]: > 449 nM | IC50 [2]: 1260 nM | Kb [2]: 127 nM

O=c1[nH]c2ccc(F)cc2n1[C@H]1CCCN(C[C@H]2COc3ccccc3O2)C1 [example 86, 1-((S)-1-(((S)-2,3-Dihydrobenzo[b][1,4]dioxin-2-yl)methyl)piperidin-3-yl)-6-fluoro-1H-benzo[d]imidazol-2(3H)-one]
IC50 [1]: > 10000 nM | Kb [1]: > 449 nM | IC50 [2]: < 0.1 nM | Kb [2]: < 0.01 nM

Fc1ccc2c(c1)ncn2[C@H]1CCCN(C[C@H]2COc3ccccc3O2)C1 [example 87, 1-((S)-1-(((S)-2,3-Dihydrobenzo[b][1,4]dioxin-2-yl)methyl)piperidin-3-yl)-5-fluoro-1H-benzo[d]imidazole]
IC50 [1]: > 10000 nM | Kb [1]: > 449 nM | IC50 [2]: < 0.1 nM | Kb [2]: < 0.01 nM

O=c1[nH]c2cc(F)ccc2n1[C@H]1CCCN(C[C@H]2COc3ccccc3O2)C1 [example 88, 1-((S)-1-(((S)-2,3-Dihydrobenzo[b][1,4]dioxin-2-yl)methyl)piperidin-3-yl)-5-fluoro-1H-benzo[d]imidazol-2(3H)-one]
IC50 [1]: > 10000 nM | Kb [1]: > 449 nM | IC50 [2]: < 0.1 nM | Kb [2]: < 0.01 nM

Clc1ccc2ncn([C@H]3CCCN(C[C@H]4COc5ccccc5O4)C3)c2c1 [example 89, 6-Chloro-1-((S)-1-(((S)-2,3-dihydrobenzo[b][1,4]dioxin-2-yl)methyl)piperidin-3-yl)-1H-benzo[d]imidazole]
IC50 [1]: 9460 nM | Kb [1]: 425 nM | IC50 [2]: < 0.1 nM | Kb [2]: < 0.01 nM

Cc1nc2ccc(Cl)cc2n1[C@H]1CCCN(C[C@H]2COc3ccccc3O2)C1 [example 90, 6-Chloro-1-((S)-1-(((S)-2,3-dihydrobenzo[b][1,4]dioxin-2-yl)methyl)piperidin-3-yl)-2-methyl-1H-benzo[d]imidazole]
IC50 [1]: 11100 nM | Kb [1]: 498 nM | IC50 [2]: < 0.1 nM | Kb [2]: < 0.01 nM

Clc1ccc2c(c1)ncn2[C@H]1CCCN(C[C@H]2COc3ccccc3O2)C1 [example 91, 5-Chloro-1-((S)-1-(((S)-2,3-dihydrobenzo[b][1,4]dioxin-2-yl)methyl)piperidin-3-yl)-1H-benzo[d]imidazole]
IC50 [1]: > 10000 nM | Kb [1]: > 449 nM | IC50 [2]: < 0.1 nM | Kb [2]: < 0.01 nM

O=C1C2CCCC2C(=O)N1[C@H]1CCCN(C[C@H]2COc3ccccc3O2)C1 (stereo partly drawn) [example 92, 2-((S)-1-(((S)-2,3-Dihydrobenzo[b][1,4]dioxin-2-yl)methyl)piperidin-3-yl)tetrahydrocyclopenta[c]pyrrole-1,3(2H,3aH)-dione hydrochloride]
IC50 [1]: > 10000 nM | Kb [1]: > 449 nM | IC50 [2]: 0.15 nM | Kb [2]: 0.02 nM

O=C1[C@H]2CCCC[C@H]2C(=O)N1[C@H]1CCCN(C[C@H]2COc3ccccc3O2)C1 [example 93, (3aR,7aS)-2-((S)-1-(((S)-2,3-Dihydrobenzo[b][1,4]dioxin-2-yl)methyl)piperidin-3-yl)hexahydro-1H-isoindole-1,3(2H)-dione hydrochloride]
IC50 [1]: > 10000 nM | Kb [1]: > 449 nM | IC50 [2]: 0.091 nM | Kb [2]: 0.009 nM

O=C1C2=C(CCCC2)C(=O)N1[C@H]1CCCN(C[C@H]2COc3ccccc3O2)C1 [example 94, 2-((S)-1-(((S)-2,3-Dihydrobenzo[b][1,4]dioxin-2-yl)methyl)-piperidin-3-yl)-4,5,6,7-tetrahydro-1H-isoindole-1,3(2H)-dione hydrochloride]
IC50 [1]: > 10000 nM | Kb [1]: > 449 nM | IC50 [2]: < 0.1 nM | Kb [2]: < 0.01 nM

O=C1C2CC2C(=O)N1[C@H]1CCCN(C[C@H]2COc3ccccc3O2)C1 (stereo partly drawn) [example 95, 3-((S)-1-(((S)-2,3-Dihydrobenzo[b][1,4]dioxin-2-yl)methyl)piperidin-3-yl)-3-azabicyclo[3.1.0]hexane-2,4-dione]
IC50 [1]: 9440 nM | Kb [1]: 424 nM | IC50 [2]: 0.433 nM | Kb [2]: 0.044 nM

CCN1C(=O)CC(=O)N([C@H]2CCCN(C[C@H]3COc4ccccc4O3)C2)C1=O [example 96, 1-((S)-1-(((S)-2,3-Dihydrobenzo[b][1,4]dioxin-2-yl)methyl)-piperidin-3-yl)-3-ethylpyrimidine-2,4,6(1H,3H,5H)-trione]
IC50 [1]: > 10000 nM | Kb [1]: > 449 nM | IC50 [2]: 15.1 nM | Kb [2]: 1.52 nM

CC1CCN([C@H]2CCCN(C[C@H]3COc4ccccc4O3)C2)C1=O (stereo partly drawn) [example 97, 1-((S)-1-(((S)-2,3-Dihydrobenzo[b][1,4]dioxin-2-yl)methyl)-piperidin-3-yl)-3-methylpyrrolidin-2-one]
IC50 [1]: > 10000 nM | Kb [1]: > 449 nM | IC50 [2]: 1 nM | Kb [2]: 0.1 nM

CC1(C)CCN([C@H]2CCCN(C[C@H]3COc4ccccc4O3)C2)C1=O [example 100, 1-((S)-1-(((S)-2,3-Dihydrobenzo[b][1,4]dioxin-2-yl)methyl)piperidin-3-yl)-3,3-dimethylpyrrolidin-2-one]
IC50 [1]: > 10000 nM | Kb [1]: > 449 nM | IC50 [2]: 2.02 nM | Kb [2]: 0.203 nM

CN1CCN([C@H]2CCCN(C[C@H]3COc4ccccc4O3)C2)C1=O [example 101, 1-((S)-1-(((S)-2,3-Dihydrobenzo[b][1,4]dioxin-2-yl)methyl)piperidin-3-yl)-3-methylimidazolidin-2-one]
IC50 [1]: > 10000 nM | Kb [1]: > 449 nM | IC50 [2]: 0.78 nM | Kb [2]: 0.08 nM

CN1CC(=O)N([C@H]2CCCN(C[C@H]3COc4ccccc4O3)C2)C1=O [example 103, 3-((S)-1-(((S)-2,3-Dihydrobenzo[b][1,4]dioxin-2-yl)methyl)piperidin-3-yl)-1-methylimidazolidine-2,4-dione]
IC50 [1]: > 10000 nM | Kb [1]: > 449 nM | IC50 [2]: 3.17 nM | Kb [2]: 0.32 nM

CC(C)N1CC(=O)N([C@H]2CCCN(C[C@H]3COc4ccccc4O3)C2)C1=O [example 104, 3-((S)-1-(((S)-2,3-Dihydrobenzo[b][1,4]dioxin-2-yl)methyl)piperidin-3-yl)-1-isopropylimidazolidine-2,4-dione]
IC50 [1]: > 10000 nM | Kb [1]: > 449 nM | IC50 [2]: 10 nM | Kb [2]: 1.01 nM

CCN1CC(=O)N([C@H]2CCCN(C[C@H]3COc4ccccc4O3)C2)C1=O [example 105, 3-((S)-1-(((S)-2,3-Dihydrobenzo[b][1,4]dioxin-2-yl)methyl)-piperidin-3-yl)-1-ethylimidazolidine-2,4-dione]
IC50 [1]: > 10000 nM | Kb [1]: > 449 nM | IC50 [2]: 3.27 nM | Kb [2]: 0.33 nM
